# Results taken from patent US20150216182A1, “COMPOSITIONS AND METHODS OF THE ATTRACTION AND REPULSION OF INSECTS” (Olfactor Laboratories, Inc., priority 2012, published 2015).
# Where a name gives a salt, the structure may show the parent alone. Read-outs that look alike come from different tables or passages of the source.
# Legend:
# female mosquitoes = assay: whole plant or invertebrate; details: 2 h; for mortality at 200 µg/mL: read-out: % mortality with 0.2 mg/ml; for mortality at 2000 µg/mL: read-out: % mortality with 2 mg/ml
# [1] = tested on: bed bugs (Cimex lectularius); assay: bed bug repellency assay; format: in vivo; details: for % Rep (bed bug repellency): compound or combination on filter paper harborage, ten bed bugs
# Protocol: Compounds and combinations of compounds of the present invention were assayed for their ability to repel bed bugs (Cimex lectularius) using a bed bug repellency assay. This assay takes advantage of the bed bug's natural tendency to seek harborage. Two petri dishes were obtained and the inner areas of each were sanded down (leaving the perimeter smooth.) Talc was applied on the perimeter and on the inside walls of the petri dishes with a small paint brush to prevent bed bugs from escaping. A cut off top portion of a solo bathroom cup was placed upside down in the center of one petri dish. A large plastic secondary container was gathered and a paper towel was laid down inside the bottom. The petri dish was then placed inside and ten bed bugs were placed inside the cut off portion of the solo cup. Next, two pieces of filter paper were cut down the middle to yield 4 equally sized halves. 3 pieces were placed inside a glass dish ([…]) and the remaining piece was placed in a separate dish. All 4 pieces were folded down the middle to create a “tent” or “harborage” when laid such that the folded crease faced up. 100 microliters of isopropyl alcohol was pipetted into 3 pieces of filter paper (all housed in the first glass dish.) In a separate 4 ml vial, 90 microliters of isopropyl alcohol was combined and vortexed with 10 microliters of the compound or compound combination being tested. 100 microliters of this solution [comprising a total of 100 mg of compound(s)] was pipetted onto the filter paper in the separate dish. All filter papers were then allowed to dry. Once dry, experiments were conducted first with two filter paper halves comprising only the isopropyl alcohol (control experiment) and then with the remaining filter paper halves [one with only isopropyl alcohol and one comprising the test compound(s).] Filter paper halves were placed on opposing sides of experimental petri dishes and bed bugs were allowed to move freely within the dishes for 5 minutes. Movement of bed bugs beneath each filter paper tent was recorded. […] In the Table, “Rep” refers to repellency and “Cmpd” refers to compound.
# larvae = assay: larvicidal activity assay; format: in vivo; details: for pest or weed control at 0.25 %: read-out: % Lethality with 0.25% compound conc.; for pest or weed control at 100 ppm: read-out: % Lethality at 100 ppm
# Protocol: A 6-well plate (Corning Life Sciences, Tewksbury, Mass.) is used to test a compound's larvicidal activity. […] After a 24 hour exposure, the number of dead larvae are counted and recorded.
# The results are presented in Table 17 as % lethality (the number of dead larvae divided by the total number of larvae).
# cpA neurons [2] = assay: extracellular single-sensillum electrophysiology: inhibition of CO2-responsive (cpA) neuronal activity; details: for Class (inhibitor class of the individual component): Inh = inhibitor; for Class: Table 10, single compounds, percent reduction in cpA activity compared to baseline
# cpA neurons [3] = assay: extracellular single-sensillum electrophysiology: activation of cpA neuronal activity; details: for Class: Table 6, single compounds, increase over baseline cpA neuronal activity; for Comp B Class / Comp A Class: Table 9; for Comp B Class: component B tested individually; for Class B (activator class of the individual component): Table 15, single component alone, Mod Actv; for Comp A Class: component A tested individually
# [4] = 0.25% compound, 24 hour exposure, dead larvae / total larvae
# [5] = 100 ppm compound, 24 hour exposure, dead larvae / total larvae
# [6] = Table 13, single component alone
# [7] = Table 16, single component alone
Compound,mortality at 200 µg/mL (female mosquitoes),mortality at 2000 µg/mL (female mosquitoes),"ability to repel bed bugs ([1]; 100 microliters solution on filter paper tent, 5 minutes)",% Rep (bed bug repellency) [1],pest or weed control at 0.25 % (larvae; [4]),pest or weed control at 100 ppm (larvae; [5]),Class (inhibitor class of the individual component) (cpA neurons [2]; [6]),Class (inhibitor class of the individual component) (cpA neurons [2]; [7]),Class (cpA neurons [2]),inhibitor class of single compound (cpA neurons [2]),Class (cpA neurons [3]),Comp B Class (cpA neurons [3]),Class B (activator class of the individual component) (cpA neurons [3]),% Lethality with 0.25% compound conc. (larvae; [4]),% Lethality at 100 ppm (larvae; [5]),pest or weed control at 100 ppm (larvae; 24 h),pest or weed control at 0.25 % (larvae; 24 h),Comp A Class (cpA neurons [3])
"C=CCc1ccc(O)c(OC)c1 [OLI0102, Eugenol]",0%,100%,surprisingly strong ability to repel bed bugs,100%,100%,25%,Mild,Mild,–,–,–,–,–,–,–,–,–,–
"CCc1nccnc1C [OLI0069, 2-ethyl-3-methylpyrazine]",0%,0%,–,10%,100%,0%,–,–,Strong Inhibitor (strong inhibitors (reducing activity >60%)),–,–,–,–,–,–,–,–,–
"CCc1nccnc1OC [OLI0071, 2-ethyl-3-methoxypyrazine]",0%,0%,–,29%,100%,0%,Mod,Mod,Moderate Inhibitor (moderate inhibitors (reducing activity by 40-60%)),moderate inhibitor (40-60% reduction in neuronal activity as compared to baseline activity of the neuron),–,–,–,–,–,–,–,–
"CCCCCCC/C=C/C=O [OLI0077, trans-2-decenal]",–,–,–,72%,–,–,Mod,–,Moderate Inhibitor (moderate inhibitors (reducing activity by 40-60%)),–,–,–,–,–,–,–,–,–
"CCc1ncc(C)nc1CC [OLI0067, 2,3-diethyl-5-methylpyrazine]",0%,0%,–,100%,100%,0%,–,–,Strong Inhibitor (strong inhibitors (reducing activity >60%)),–,–,–,–,–,–,–,–,–
"C=CCOC(=O)CCC [OLI0019, allyl butyrate]",0%,0%,–,8%,100%,0%,–,–,–,–,Moderate Activator (Moderate activators yield an increase in neuronal activity that is between 40 and 60 spk/sec over baseline neuronal activity),Mod,Mod,–,–,–,–,–
"CCc1nccnc1CC [OLI0068, 2,3-diethylpyrazine]",0%,0%,–,24%,100%,0%,–,Strng,Strong Inhibitor (strong inhibitors (reducing activity >60%)),–,–,–,–,–,–,–,–,–
2-methoxy-3(5or6)isopropylpyrazine [OLI0072],–,–,–,100%,–,–,Mod,Mod,Moderate Inhibitor (moderate inhibitors (reducing activity by 40-60%)),moderate inhibitor (40-60% reduction in neuronal activity as compared to baseline activity of the neuron),–,–,–,100% lethal,0% lethal,–,–,–
"CCCCOC=O [OLI0007, butyl formate]",0%,0%,–,6%,–,–,–,–,–,–,Strong Activator (strong activators yield an increase in activity that is >60 spk/sec over baseline neuronal activity),–,–,–,–,0%,0%,–
"CCCCCCC(=O)OC [OLI0091, methyl heptanoate]",0%,0%,–,20%,72%,0%,–,–,Mild Inhibitor (mild inhibitors (reducing activity by 20-40%)),–,–,–,–,–,–,–,–,Mild Inh (mild inhibitors (reducing activity by 20-40%))
"CCOC(=O)c1ccco1 [OLI0009, ethyl 2-furoate]",0%,0%,–,41%,100%,0%,–,–,–,–,Strong Activator (strong activators yield an increase in activity that is >60 spk/sec over baseline neuronal activity),–,–,–,–,–,–,–
"CC(=O)c1ccc(C)o1 [OLI0016, 2-acetyl-5-methyl furan]",0%,0%,–,86%,100%,0%,–,–,–,–,Moderate Activator (Moderate activators yield an increase in neuronal activity that is between 40 and 60 spk/sec over baseline neuronal activity),Mod,Mod,–,–,–,–,Mod
"Cc1cnc(C)c(C)n1 [OLI0014, 2,3,5-trimethylpyrazine]",0%,0%,–,59%,21%,0%,–,–,–,–,Moderate Activator (Moderate activators yield an increase in neuronal activity that is between 40 and 60 spk/sec over baseline neuronal activity),Mod,Mod,–,–,–,–,Mod
"Cc1ccc(C=O)o1 [OLI0006, 5-methyl furfural]",0%,0%,–,47%,100%,0%,–,–,–,–,Strong Activator (strong activators yield an increase in activity that is >60 spk/sec over baseline neuronal activity),–,–,–,–,–,–,–
"CCCC(O)CC(=O)OCC (stereo not shown) [OLI0021, ethyl 3-hydroxyhexanoate]",0%,75%,–,100%,0%,0%,–,–,–,–,Moderate Activator (Moderate activators yield an increase in neuronal activity that is between 40 and 60 spk/sec over baseline neuronal activity),Mod,Mod,–,–,–,–,Mod
"CCc1ccc(O)cc1 [OLI0005, 4-ethylphenol]",0%,100%,–,100%,–,–,–,–,–,–,Strong Activator (strong activators yield an increase in activity that is >60 spk/sec over baseline neuronal activity),–,–,–,–,100%,100%,–
